Reference: EP4729058A1, “AGENT FOR PROMOTING ENERGY CONSUMPTION” (Otsuka Pharmaceutical Factory, Inc., priority 2023, dated 2024)

What was measured:
Format in all cases: in vivo, Mouse, C57BL/6J, male
Body weight measurement = details: for Body weight: ultra high fat diet, n=10
Description: Measurements were carried out at the time of arrival and every week from the day of grouping until the time of necropsy. Measurements were also carried out on the day of measuring the body composition and immediately before necropsy.
(§1) Animals after arrival were fed ad libitum a solid diet of ultra high fat diet (D12492). After an acclimatization period, the animals were divided into groups according to the body weight. Then, the animals were individually housed and fed ad libitum the ultra high fat diet. The test substance was orally administered to all groups twice daily (once in the morning and once in the afternoon) (CON group: 0.5% CMC was orally administered; compound A administered group: compound A was orally administered). The day of the first administration was regarded as day 0 from the start of the test. Here, 5 animals from each group were regarded as the first-half animals, and the rest were regarded as the second-half animals, and feeding and administration for the second-half animals were started on day 2 from the start of the test of the first-half animals (day 0 from the start of the test of the second-half animals). In order for the animals to be acclimated to the environment inside an exhaled gas measurement chamber, the animals after oral administration in the morning (9:00) at days 7, 21, and 49 days from the start of the test were individually accommodated in the exhaled gas measurement chamber for 5.5 hours (10:00-15:30) with free access to water under fasting conditions. On days 28 and 65, after oral administration in the morning (11:00), all applicable animals were promptly accommodated individually in the exhaled gas measurement chamber, and acclimated for about 24 hours with free access to water and food. Oral administration was carried out in the afternoon of the same day (15:30) and in the morning of the next day (8:30), and the animals after administration were promptly accommodated in the exhaled gas measurement chamber again. After acclimation, the animals were returned to the cages for housing them. On day 82, all applicable animals were promptly accommodated in the exhaled gas measurement chamber (10:00) before oral administration in the morning. Oral administration was carried out in the morning (11:00) and afternoon (15:30) of the same day, and after oral administration in the morning (8:30) of the next day, exhaled gas was measured until necropsy. The animals were subjected to necropsy in the afternoon on day 83 (13:00). At the time of necropsy, laparotomy was performed under isoflurane anesthesia, and blood was collected from the caudal vena cava. After blood collection, the animals were euthanized by bleeding from the site of blood collection, and organs (fat, skeletal muscle) were collected.

[1] = Total cholesterol in plasma at necropsy; details: 720 mg/10mL/kg oral twice a day for 12 weeks, ultra high fat diet, n=10, p < 0.01 vs CON
Description: (§2) Animals after arrival were fed ad libitum a solid diet of ultra high fat diet (D12492). After an acclimatization period, the animals were divided into groups according to the body weight. Then, the animals were individually housed and fed ad libitum the ultra high fat diet. The test substance was orally administered to all groups twice daily (once in the morning and once in the afternoon) (CON group: 0.5% CMC was orally administered; compound A administered group: compound A was orally administered). The day of the first administration was regarded as day 0 from the start of the test. Here, 5 animals from each group were regarded as the first-half animals, and the rest were regarded as the second-half animals, and feeding and administration for the second-half animals were started on day 2 from the start of the test of the first-half animals (day 0 from the start of the test of the second-half animals). […] Oral administration was carried out in the morning (11:00) and afternoon (15:30) of the same day, and after oral administration in the morning (8:30) of the next day, exhaled gas was measured until necropsy. […]

[2] = White fat tissue weight at necropsy; details: white fat weight per body weight at necropsy, 720 mg/10mL/kg oral twice a day for 12 weeks, ultra high fat diet, n=10
Description: as §1
At the time of necropsy, fat around the left and right epididymides was taken out, and then the epididymides were discarded. […]

[3] = Skeletal muscle weight at necropsy; details: 720 mg/10mL/kg oral twice a day for 12 weeks, ultra high fat diet, n=10, p<0.05 vs CON
Description: as §1, with “collected. […]” for “collected.”

[4] = Rectal temperature before necropsy; details: before necropsy (day 83); 720 mg/10mL/kg oral twice a day for 12 weeks, ultra high fat diet; n=10; p < 0.01 vs CON
Description: Before necropsy, a temperature controller for small animals (NS-TC10 Temperature Controller, Neuroscience, Inc.) equipped with a probe for measuring the rectal temperature was inserted into the rectum to measure the rectal temperature.
as §2

[5] = Body composition (body composition analyzer, Echo MRI-700); details: 720 mg/10mL/kg oral twice a day, ultra high fat diet, n=10
Description: The body fat mass and the lean body mass were measured with a body composition analyzer (Echo MRI-700, Hitachi, Ltd.) at 6, 9, and 12 weeks of the test food intake, and divided by the body weight to calculate body fat percentage and lean body mass percentage.
as §1

[6] = Analysis of exhaled gas (energy metabolism measurement system for small animals); details: over 24 hours after morning administration on day 82, 720 mg/10mL/kg oral twice a day, ultra high fat diet, n=10
Description: A 32-channel energy metabolism measurement system for small animals (ARCO-2000-RAT, Arco System Inc.) was used to measure exhaled gas. Oxygen consumption (mL/min) and Carbon dioxide production (mL/min) of the animals were measured every 10 minutes at an air flow rate of 0.3 L/min. Measurements were carried out for about 24 hours after the completion of oral administration in the morning of the day before necropsy, and total oxygen consumption (mL/kg/day), energy consumption (kcal/kg/day), and lipid burning (mg/kg/day) over 24 hours were calculated using the following formulae: Calculation formulae: [formula] [formula] [formula] (VO2: oxygen consumption, VCO2: carbon dioxide production)
as §1, with “On day 82, all applicable animals were promptly accommodated in the exhaled gas measurement chamber (10:00) before oral administration in the morning.” left out, “The animals were subjected to necropsy in the afternoon on day 83 (13:00). At the time of necropsy, laparotomy was performed under isoflurane anesthesia, and blood was collected from the caudal vena cava. After blood collection, the animals were euthanized by bleeding from the site of blood collection, and organs (fat, skeletal muscle) were collected.” left out

[7] = muscle weight per body weight at necropsy, left and right together
[8] = calculated from VO2 and VCO2, p < 0.01 vs CON

## O=C(O)CC(C(=O)O)N1C(=O)CC(O)(CC(=O)O)C1=O (racemic) [Compound A]
Body weight measurement; 1 week, 720 mg/10mL/kg oral twice a day
  Body weight: 24.9 g
Body weight measurement; 2 weeks, 720 mg/10mL/kg oral twice a day
  Body weight: 25.1 g
Body weight measurement; 3 weeks, 720 mg/10mL/kg oral twice a day
  Body weight: 25.3 g
Body weight measurement; 4 weeks, 720 mg/10mL/kg oral twice a day
  Body weight: 25.4 g
Body weight measurement; 5 weeks, 720 mg/10mL/kg oral twice a day
  Body weight: 25.8 g
Body weight measurement; 6 weeks, 720 mg/10mL/kg oral twice a day
  Body weight: 26.4 g
Body weight measurement; 7 weeks, 720 mg/10mL/kg oral twice a day, p=0.087 vs CON
  Body weight: 26.8 g
Body weight measurement; 8 weeks, 720 mg/10mL/kg oral twice a day, p=0.082 vs CON
  Body weight: 27.3 g
Body weight measurement; 9 weeks, 720 mg/10mL/kg oral twice a day, p=0.068 vs CON
  Body weight: 27.8 g
Body weight measurement; 10 weeks, 720 mg/10mL/kg oral twice a day, p < 0.05 vs CON
  Body weight: 27.2 g
Body weight measurement; 11 weeks, 720 mg/10mL/kg oral twice a day, p < 0.05 vs CON
  Body weight: 28.3 g
Body weight measurement; 12 weeks, 720 mg/10mL/kg oral twice a day, p < 0.05 vs CON
  Body weight: 28.9 g
Body weight measurement; Before administration (baseline)
  Body weight: 25.1 g
Body weight measurement; after 12 weeks of administration, (3.8 / 7.2) × 100
  body weight gain relative to the body weight gain of the CON group being 100%: 52.8%
Body weight measurement; after 12 weeks of administration, CON group 7.2 g
  mean body weight gain: 3.8 g
[1]
  Total cholesterol: 149.4 mg/dL
[2]; p < 0.01 vs CON
  Epididymal fat: 32.18 g/Kg body weight
  Perirenal fat: 12.12 g/Kg body weight
[2]; p<0.05 vs CON
  Interscapular fat: 1.88 g/Kg body weight
  Mesenteric fat: 10.10 g/Kg body weight
[3]; [7]
  Anterior tibialis muscle: 3.53 g/Kg body weight
  Extensor digitorum longus muscle: 0.84 g/Kg body weight
  Plantaris muscle: 1.31 g/Kg body weight
[3]; plantaris, anterior tibial and extensor digitorum longus muscle, per body weight at necropsy
  Muscles (Total weight of 3 types of muscle): 5.68 g/Kg body weight
[4]
  Rectal temperature: 35.7 °C
[5]; 6 weeks, p=0.057 vs CON
  Lean body mass percentage: 79.6%
[5]; 6 weeks, p=0.092 vs CON
  Body fat percentage: 15.6%
[5]; 9 weeks, p < 0.05 vs CON
  Body fat percentage: 17.7%
  Lean body mass percentage: 77.3%
[5]; 12 weeks, p < 0.01 vs CON
  Body fat percentage: 19.0%
  Lean body mass percentage: 74.7%
[6]
  total carbon dioxide production: 28.277 mL/min/kg
[6]; p < 0.01 vs CON
  total oxygen consumption: 35.682 mL/min/kg
[6]; [8]
  total energy consumption: 243 kcal/kg/day
  total lipid burning: 17768 mg/kg/day
